Experimental data reported in patent US20080032998A1, “Pyrazolopyrimidines, a process for their preparation and their use as medicine” (MERZ PHARMA GMBH & CO. KGAA, priority 2006, published 2008).

Columns and labels:
[1] = molecular target: T1, metabotropic glutamate receptor (mGluR5) (Homo sapiens, UniProt P41594); test: Cytosolic calcium studies with stably transfected cells (FLIPR); assay type: cell-based; set-up: expressed in transfected cells; host or cells: CHO-K1 cells (IPTG-inducible expression); conditions: CHO-K1 cells with human mGluR5, agonist L-quisqualic acid; read-out: mGluR5_FLIPR_h_CHONAM_IC50
Method: Cytosolic Calcium Studies with Stably Transfected Cells
Chinese hamster ovary cells (CHO-K1 cells), stably transfected for inducible expression of a human metabotropic glutamate receptor mGluR5, are seeded into black clear bottom 96 well plates at a density of 35.000 cells per well. The standard growth medium used (Dulbecco's modified Eagle Medium, DMEM plus L-proline) contains the appropriate inducer isopropyl-β-D-thiogalactopyranosid (IPTG) to achieve optimal receptor expression. One day after seeding the growth medium is exchanged for reconstituted Ca-Kit (Molecular Devices, USA) and incubated for one hour. […] Agonistic compounds to the receptor elicit increases in cytosolic calcium which can be measured as increases in fluorescence signals by use of a fluorescence imaging plate reader (Molecular Devices).
(§1) The fluorescence signal increase after addition of agonist reflects the increase of cytosolic calcium. […] The mean of replicated temporal data (n=3-5) is calculated and used for graphical representation. For the evaluation of the pharmacology, the calcium changes in response to different concentrations of agonist or antagonist are determined using a maximum minus minimum (MaxMin) calculation.
All responses (RFU-values) are determined as percentage of control (=maximum response). […]

mGluR5 receptors = molecular target: T2, mGluR5 receptors (Rattus norvegicus, UniProt P31424); test: Cytosolic calcium studies with astrocytes (astrocyte culture test, FLIPR); assay type: cell-based; conditions: rat primary astrocytes, L-quisqualate 100 nM; read-out: mGluR5_FLIPR_r_rpA IC50
T2 construct: endogenous in cells; host or cells: primary astrocytes from neocortex of Sprague-Dawley rat pups
Method: Primary astrocyte cultures are prepared from cortices of newborn rats as described by Booher and Sensenbrenner (1972, Neurobiology 2(3):97-105). Briefly, Sprague-Dawley rat pups (2-4 d old) are decapitated and neocortices are dissected, disintegrated with a nylon filter (pore size 80 μm) and carefully triturated. […]
The increase of cytosolic calcium after stimulation with the mGluR5 agonist L-quisqualate is measured using a fluorometric imaging plate reader (FLIPR) and the Ca-Kit (both Molecular Devices). […] Subsequently, plates are transferred to FLIPR to detect calcium increase with the addition of L-quisqualate (100 nM) measured as relative fluorescence units (RFU). […]
as §1
All responses (RFU-values) are determined as percentage of control (=maximum response). EC50 and IC50 are calculated according the logistic equation using GraFit 5.0 (Erithacus Software, GB) or Prism 4.0 (GraphPad Software, USA).

[2] = molecular target: T3, transmembrane allosteric modulatory sites of mGluR5 receptors in cortical membranes (Rattus norvegicus, UniProt P31424); test: [3H]-MPEP binding assay in rat cortical membranes; conditions: [3H]-MPEP 5 nM, read-out: mGluR5_MPEP rCTX_IC50
T3 construct: from tissue; host or cells: rat brain cortex membranes (male Sprague-Dawley)
Method: Male Sprague-Dawley rats (200-250 g) are decapitated and their brains are removed rapidly. The cortex is dissected and homogenized in 20 volumes of ice-cold 0.32 M sucrose using a glass-Teflon homogenizer. The homogenate is centrifuged at 1000×g for 10 minutes. The pellet is discarded and the supernatant centrifuged at 20,000×g for 20 minutes. The resulting pellet is re-suspended in 20 volumes of distilled water and centrifuged for 20 minutes at 8000×g. Then the supernatant and the buffy coat are centrifuged at 48,000×g for 20 minutes in the presence of 50 mM Tris-HCl, pH 8.0. The pellet is then re-suspended and centrifuged two to three more times at 48,000×g for 20 minutes in the presence of 50 mM Tris-HCl, pH 8.0. All centrifugation steps are carried out at 4° C. After resuspension in 5 volumes of 50 mM Tris-HCl, pH 8.0 the membrane suspension is frozen rapidly at −80° C. […]
Alternatively, assays are performed with [^3H]-MMPEP (2-(3-methoxyphenylethynyl)-6-methylpyridine hydrochloride) as radioligand. […] Following separation and rinse, the filters are placed into scintillation liquid (5 ml Ultima Gold, Perkin Elmer, Germany) and radioactivity retained on the filters is determined with a conventional liquid scintillation counter (Canberra Packard, Germany).

[3] = molecular target: T1, metabotropic glutamate receptor (mGluR5); test: Activity as mGluR5 modulator (prior-art compounds, method not given)

T1 sequence (P41594 21-1212): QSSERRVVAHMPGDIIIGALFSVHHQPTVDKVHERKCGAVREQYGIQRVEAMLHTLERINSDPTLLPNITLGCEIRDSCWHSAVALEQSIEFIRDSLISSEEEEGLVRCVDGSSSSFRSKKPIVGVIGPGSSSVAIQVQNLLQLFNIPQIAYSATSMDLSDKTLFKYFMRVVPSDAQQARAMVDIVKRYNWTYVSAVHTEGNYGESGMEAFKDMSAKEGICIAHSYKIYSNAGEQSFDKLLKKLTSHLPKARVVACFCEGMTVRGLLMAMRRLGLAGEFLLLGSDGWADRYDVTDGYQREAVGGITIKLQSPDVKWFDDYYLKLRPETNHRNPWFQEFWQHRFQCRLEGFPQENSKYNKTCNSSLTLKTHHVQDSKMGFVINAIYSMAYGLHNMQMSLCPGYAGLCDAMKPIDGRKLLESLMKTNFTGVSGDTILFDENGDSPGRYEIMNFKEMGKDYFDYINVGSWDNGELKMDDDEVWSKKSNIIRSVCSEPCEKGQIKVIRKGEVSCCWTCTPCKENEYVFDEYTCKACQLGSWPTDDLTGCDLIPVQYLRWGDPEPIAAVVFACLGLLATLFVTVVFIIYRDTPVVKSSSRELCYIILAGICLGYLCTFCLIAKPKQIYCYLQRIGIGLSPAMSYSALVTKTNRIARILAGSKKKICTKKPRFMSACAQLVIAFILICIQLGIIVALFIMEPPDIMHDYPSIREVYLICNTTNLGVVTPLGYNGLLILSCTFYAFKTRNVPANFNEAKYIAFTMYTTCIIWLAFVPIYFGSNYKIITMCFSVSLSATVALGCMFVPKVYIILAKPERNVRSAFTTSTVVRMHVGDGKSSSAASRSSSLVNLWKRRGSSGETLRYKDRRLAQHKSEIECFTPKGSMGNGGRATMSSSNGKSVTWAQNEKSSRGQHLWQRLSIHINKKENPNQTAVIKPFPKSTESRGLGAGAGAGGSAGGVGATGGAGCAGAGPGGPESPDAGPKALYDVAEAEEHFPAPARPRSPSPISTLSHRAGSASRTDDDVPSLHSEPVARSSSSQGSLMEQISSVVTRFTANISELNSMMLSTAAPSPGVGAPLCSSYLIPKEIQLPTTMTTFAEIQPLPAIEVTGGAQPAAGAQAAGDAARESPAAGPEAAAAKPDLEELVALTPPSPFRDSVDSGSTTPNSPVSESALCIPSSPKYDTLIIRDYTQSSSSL
T2 sequence (P31424 21-1203): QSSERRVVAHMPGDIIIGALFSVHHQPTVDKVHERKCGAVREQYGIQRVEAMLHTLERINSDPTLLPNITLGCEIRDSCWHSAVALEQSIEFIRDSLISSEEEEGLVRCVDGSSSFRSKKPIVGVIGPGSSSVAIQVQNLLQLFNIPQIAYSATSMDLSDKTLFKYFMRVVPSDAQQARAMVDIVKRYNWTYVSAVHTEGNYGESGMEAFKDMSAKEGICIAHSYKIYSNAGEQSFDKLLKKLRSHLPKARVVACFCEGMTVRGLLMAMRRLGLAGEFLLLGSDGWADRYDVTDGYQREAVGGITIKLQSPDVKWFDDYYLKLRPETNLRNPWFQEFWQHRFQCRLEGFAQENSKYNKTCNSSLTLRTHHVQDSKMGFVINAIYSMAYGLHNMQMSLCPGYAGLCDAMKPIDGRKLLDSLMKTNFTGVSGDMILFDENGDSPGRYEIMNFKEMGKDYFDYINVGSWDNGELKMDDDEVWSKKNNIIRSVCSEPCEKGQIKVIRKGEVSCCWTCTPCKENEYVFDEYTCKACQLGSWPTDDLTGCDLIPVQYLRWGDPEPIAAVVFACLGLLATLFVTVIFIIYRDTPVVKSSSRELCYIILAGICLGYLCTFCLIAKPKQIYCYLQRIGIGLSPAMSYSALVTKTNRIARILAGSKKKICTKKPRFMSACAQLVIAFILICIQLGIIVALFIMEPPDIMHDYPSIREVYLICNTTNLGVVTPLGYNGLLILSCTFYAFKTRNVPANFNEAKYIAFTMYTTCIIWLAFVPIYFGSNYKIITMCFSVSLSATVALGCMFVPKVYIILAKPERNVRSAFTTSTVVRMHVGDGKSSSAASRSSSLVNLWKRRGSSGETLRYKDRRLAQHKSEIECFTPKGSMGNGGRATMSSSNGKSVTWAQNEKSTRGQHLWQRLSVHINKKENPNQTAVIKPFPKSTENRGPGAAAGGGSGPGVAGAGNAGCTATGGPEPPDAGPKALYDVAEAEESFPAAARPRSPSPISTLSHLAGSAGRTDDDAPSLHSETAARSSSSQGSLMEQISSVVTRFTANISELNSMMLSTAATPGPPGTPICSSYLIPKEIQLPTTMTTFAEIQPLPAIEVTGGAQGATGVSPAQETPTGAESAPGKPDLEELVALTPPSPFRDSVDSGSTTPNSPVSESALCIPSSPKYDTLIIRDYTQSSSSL
T3 sequence (P31424 21-1203): as above

| SMILES | IC50 [1] [nM] | IC50 (mGluR5 receptors) [nM] | IC50 [2] [nM] | activity as metabotropic glutamate receptor (mGluR5) modulator [3] | selectivity [3] |
| --- | --- | --- | --- | --- | --- |
| O=C(c1cc2ncc(Br)cn2n1)N1CC=C(c2ccccc2)CC1 [Example 1, (6-Bromo-pyrazolo[1,5-a]pyrimidin-2-yl)-(4-phenyl-3,6-dihydro-2H-pyridin-1-yl)-methanone] | 493 | 80 | 250 |  |  |
| O=C(c1cc2ncc(Br)cn2n1)N1CCc2ccccc2C1 [M, (6-Bromo-pyrazolo[1,5-a]pyrimidin-2-yl)-(1,2,3,4-tetrahydro-isoquinolin-2-yl)-methanon] |  |  |  | only a limited activity | not selective |
